Experimental data from patent US10124033B2, “Peptides and methods of use” (BAXALTA INCORPORATED, priority 2014, dated 2018).
Where two headings read alike, the source gives them in different places. Residues, ends and D or L forms follow the SMILES beside them.

Assays:
[1] = target: T1, Protein S/APC cofactor activity (Homo sapiens, UniProt P07225); experiment: CAT assay: Protein S/APC-dependent thrombin generation in FVIII-inhibited plasma; assay type: biochemical; details: Protein S-depleted plasma supplemented with APC and Protein S, FVIII-inhibited
T1 construct: host or cells: plasma
T1 sequence (P07225 41-676 limits assumed): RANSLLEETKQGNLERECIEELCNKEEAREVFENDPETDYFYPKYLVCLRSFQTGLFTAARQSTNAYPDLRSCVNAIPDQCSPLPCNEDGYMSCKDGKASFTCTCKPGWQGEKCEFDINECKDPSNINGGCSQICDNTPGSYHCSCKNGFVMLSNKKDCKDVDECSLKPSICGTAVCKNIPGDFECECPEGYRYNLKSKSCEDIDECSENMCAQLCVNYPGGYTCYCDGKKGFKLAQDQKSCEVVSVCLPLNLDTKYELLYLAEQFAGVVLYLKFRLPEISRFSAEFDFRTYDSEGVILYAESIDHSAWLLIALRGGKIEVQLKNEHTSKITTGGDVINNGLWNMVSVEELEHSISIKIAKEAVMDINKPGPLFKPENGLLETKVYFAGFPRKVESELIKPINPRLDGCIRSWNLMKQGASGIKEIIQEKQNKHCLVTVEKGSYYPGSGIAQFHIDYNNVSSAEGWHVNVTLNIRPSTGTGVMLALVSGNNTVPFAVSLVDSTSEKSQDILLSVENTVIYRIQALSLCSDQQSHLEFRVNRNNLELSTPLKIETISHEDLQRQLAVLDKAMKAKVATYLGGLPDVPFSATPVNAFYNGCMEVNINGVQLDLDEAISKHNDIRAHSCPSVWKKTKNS
Method: Peptides also were tested for improvement of Protein S/APC-dependent thrombin generation in hemophilic plasma using a CAT assay. Protein S enhances the anticoagulation of APC in plasma. The CAT assay quantifies the effect of Protein S on APC-mediated thrombin generation initiated via the extrinsic coagulation pathway (Nicolaes, Blood Coagul. Fibrinolysis, 8:28 (1997)). APC (35 nM) and Protein S (25 nM) was added to Protein 5-depleted plasma, and plasma samples were incubated with high titer heat inactivated anti-human FVIII plasma raised in goat (4490 BU/ml; Baxter BioScience, Vienna, Austria; 50 BU/ml final plasma concentration). Thrombin formation in plasma was followed by calibrated automated thrombography (CAT) in a Fluoroskan Ascent® reader (Thermo Labsystems, Helsinki, Finland) and quantified via the thrombin peak-height. Thrombin generation was determined at high tissue factor (TF) concentration in the absence and in the presence of APC at a concentration that reduces the peak height to ˜20%. The inhibitory effect of peptides described herein on the APC cofactor activity of Protein S (PS) in plasma was measured in FVIII-inhibited pooled normal plasma supplemented with APC. Complete (100%) Protein S/APC inhibition is the height of the thrombin peak without addition of APC. Lack of (0%) PS/APC inhibition correlates to the thrombin peak-height value with a certain amount of APC. Peptides were ranked by their normalized values in comparison to the mean of wild-type controls including SD at two defined peptide concentrations (EC50 and EC90).
Exemplary conditions for the CAT assay are as follows. Protein S-depleted plasma was supplemented with 35 nM APC and […]. Stock APC was diluted with 10 pM TF and 15 μM PL. Lyophilized peptides were dissolved in 100% DMSO to a 5 mM stock concentration and further diluted with HNABSA5-buffer+0.1% Tween80. […] In a 96 well Immulon 2HB (transparent), U-bottom (ThermoElectron) plate was mixed 80 μl plasma (+CTI+Z994-5), 10 μl peptide dilution, and 10 μl APC-TF-PL-MIX or Calibrator. Thrombin generation was initiated by dispensing 20 μL of FluCa reagent containing fluorogenic substrate and HEPES-buffered CaCl2 (100 mM) into each well. Fluorescence intensity was recorded at 37° C. using the Fluoroskan Ascent® reader (filters 390 nm excitation and 460 nm emission). The parameters of the resulting thrombin generation curves were calculated using the Thrombinoscope™ software (Thrombinoscope) and thrombin calibrator to correct for inner filter and substrate consumption effects (Hemker, Pathophysiol Haemost Thromb, 33: 415 (2003)).

[2] = target: T2, Protein S (Homo sapiens, UniProt P07225); experiment: competition (IC50) ELISA with biotinylated tracer peptide JBS0684; assay type: binding; details: competition ELISA, tracer JBS0684; re-synthesized peptides
T2 sequence (P07225 41-676 limits assumed): T1 sequence (P07225 41-676 limits assumed)
Method in brief: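 Competition ELISA on plate-coated Protein S (3 μg/mL): serially diluted peptides mixed with biotinylated tracer JBS0684 at its binding-ELISA EC90, incubated 1.5 h in HEPES/NaCl/CaCl2/Tween buffer, pH 7.35. Bound tracer detected via HRP-streptavidin and TMB colour; IC50 from competition curve.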

[3] = plasma stability in pooled normal human plasma; assay type: in vitro ADME; details: pooled normal human plasma, 37° C., 6 hours
Method: (§1) Affinity and activity of all 18 peptides was improved compared to parent JBS2572. […] Activity and stability were improved up to 1.5-fold. Plasma stability was determined in pooled normal human plasma and mouse plasma at 37° C.; exemplary results also are provided in Table 3.

[4] = plasma stability in mouse plasma; assay type: in vitro ADME; details: 37° C.
Method: as §1

[5] = target: T3, human full-length Protein S (Homo sapiens, UniProt P07225); experiment: Biacore (surface plasmon resonance) on immobilized Protein S; assay type: binding; details: Biacore; for koff / kon: Table 3; for Kd: affinity-matured and modified peptides, read-out: KD
T3 construct: using human full-length Protein S and human GAS6
T3 sequence (P07225 41-676 limits assumed): T1 sequence (P07225 41-676 limits assumed)
Method: Protein S affinity also was determined via Biacore (Biacore 3000 or Biacore T200) using human full-length Protein S and human GAS6. Briefly, 1000 RU of Protein S or GAS6 were immobilized on a CMS chip. In order to probe the kinetics of Protein S binding peptides to Protein S, the peptides were injected at various concentrations in a HBS-buffer containing 3 mM CaCl2 and 1% DMSO to the flow cell and allowed to interact with the immobilized proteins on the sensor chip. The chip could be regenerated with 4 M MgCl2 in HBS-buffer. Sensorgrams were fitted to a Langmuir binding model for the determination of kon and koff and the calculation of KD. Peptides were tested on their specificity to Protein S with peptide binding studies on the anti-target GAS6.

Row | EC50 [1] | IC50 [2] | Stability in human plasma; 6 hours [%] [3] | Stability in mouse plasma; 4 hours [%] [4] | koff ([5]; read-out: koff) | kon ([5]; read-out: kon) | Kd [5] | koff [5] | kon [5] | Compound
1 | 30 nM | 3.4 nM | – | – | – | – | – | – | – | CC(=O)N[C@H](C(=O)NCC(=O)N[C@@H](Cc1c[nH]cn1)C(=O)N[C@H](C(=O)N[C@@H](CO)C(=O)N[C@@H](C)C(=O)NCC(=O)N[C@@H](Cc1c[nH]c2ccccc12)C(=O)N[C@@H](Cc1ccc(O)cc1)C(=O)N[C@@H](CC(=O)O)C(=O)N[C@@H](Cc1ccc(O)cc1)C(=O)N[C@@H](CC(N)=O)C(=O)N[C@@H](CCCCN)C(=O)N[C@@H](CC(=O)O)C(=O)N[C@@H](Cc1c[nH]cn1)C(=O)N[C@@H](Cc1ccc(O)cc1)C(=O)N[C@@H](CCCNC(=N)N)C(=O)N[C@@H](CCC(=O)O)C(=O)N[C@@H](Cc1ccccc1)C(=O)N[C@H](C(N)=O)[C@@H](C)O)C(C)C)[C@@H](C)O [JBS2602] (Ac-TGHVSAGWYDYNKDHYREFT-NH2)
2 | 19 nM | 4.1 nM | – | – | – | – | – | – | – | CC(=O)N[C@H](C(=O)NCC(=O)N[C@@H](Cc1c[nH]cn1)C(=O)N[C@H](C(=O)N[C@@H](CO)C(=O)N[C@@H](C)C(=O)NCC(=O)N[C@@H](Cc1c[nH]c2ccccc12)C(=O)N[C@@H](Cc1ccc(O)cc1)C(=O)N[C@@H](CC(=O)O)C(=O)N[C@@H](Cc1ccc(O)cc1)C(=O)N[C@@H](CC(N)=O)C(=O)N[C@@H](Cc1ccccc1)C(=O)N[C@@H](CC(=O)O)C(=O)N[C@@H](CCCCN)C(=O)N[C@@H](Cc1ccc(O)cc1)C(=O)N[C@@H](CCCNC(=N)N)C(=O)N[C@@H](CCC(=O)O)C(=O)N[C@@H](Cc1ccccc1)C(=O)N[C@H](C(N)=O)[C@@H](C)O)C(C)C)[C@@H](C)O [JBS2604] (Ac-TGHVSAGWYDYNFDKYREFT-NH2)
3 | – | – | 74 ± 12% | 56 ± 6% | 0.000264 s⁻¹ | 629000 M⁻¹ s⁻¹ | 0.4 nM | – | – | CC[C@H](C)[C@H](NC(=O)[C@H](CC(=O)O)NC(=O)[C@H](CCCCN)NC(=O)[C@H](CC(N)=O)NC(=O)[C@H](Cc1ccc(O)cc1)NC(=O)[C@H](CC(=O)O)NC(=O)[C@H](Cc1ccc(O)cc1)NC(=O)[C@H](Cc1c[nH]c2ccccc12)NC(=O)CNC(=O)[C@H](C)NC(=O)[C@@H](NC(=O)[C@@H](NC(=O)[C@@H](NC(=O)[C@H](Cc1ccc(O)cc1)NC(=O)[C@H](CCC(=O)O)NC(C)=O)[C@@H](C)CC)C(C)C)[C@@H](C)O)C(=O)N[C@@H](Cc1ccc(O)cc1)C(=O)N[C@@H](Cc1ccc(O)cc1)C(=O)N[C@@H](CCC(=O)O)C(=O)N[C@@H](Cc1ccccc1)C(=O)N[C@@H](CCCCN)C(N)=O [JBS3263] (Ac-EYIVTAGWYDYNKDIYYEFK-NH2)
4 | – | – | 90 ± 9% | 94 ± 6% | 0.000322 s⁻¹ | 735000 M⁻¹ s⁻¹ | 0.4 nM | – | – | CC[C@H](C)[C@H](NC(=O)[C@H](C)NC(C)=O)C(=O)N[C@@H](Cc1ccc(O)cc1)C(=O)N[C@H](C(=O)N[C@H](C(=O)N[C@@H](C)C(=O)NCC(=O)N[C@@H](Cc1c[nH]c2ccccc12)C(=O)N[C@@H](Cc1ccc(O)cc1)C(=O)N[C@@H](CC(=O)O)C(=O)N[C@@H](Cc1ccc(O)cc1)C(=O)N[C@@H](CC(N)=O)C(=O)N[C@@H](CC(N)=O)C(=O)N[C@@H](CC(=O)O)C(=O)N[C@H](C(=O)N[C@@H](Cc1ccc(O)cc1)C(=O)N[C@@H](Cc1ccc(O)cc1)C(=O)N[C@@H](CCC(=O)O)C(=O)N[C@@H](Cc1ccccc1)C(=O)N[C@H](C(N)=O)[C@@H](C)O)[C@@H](C)O)[C@@H](C)O)C(C)C [JBS3283] (Ac-AIYVTAGWYDYNNDTYYEFT-NH2)
5 | – | – | 84 ± 12% | 80 ± 14% | 0.000402 s⁻¹ | 1e+06 M⁻¹ s⁻¹ | 0.4 nM | – | – | CC(=O)N[C@@H](Cc1c[nH]cn1)C(=O)N[C@@H](Cc1c[nH]c2ccccc12)C(=O)N[C@@H](Cc1ccc(O)cc1)C(=O)N[C@H](C(=O)N[C@@H](CO)C(=O)N[C@@H](C)C(=O)NCC(=O)N[C@@H](Cc1c[nH]c2ccccc12)C(=O)N[C@@H](Cc1ccc(O)cc1)C(=O)N[C@@H](CC(=O)O)C(=O)N[C@@H](Cc1ccc(O)cc1)C(=O)N[C@@H](CC(N)=O)C(=O)N[C@@H](CCC(=O)O)C(=O)N[C@@H](CC(=O)O)C(=O)N[C@@H](CCCCN)C(=O)N[C@@H](Cc1ccc(O)cc1)C(=O)N[C@@H](Cc1ccc(O)cc1)C(=O)N[C@@H](CCC(=O)O)C(=O)N[C@@H](Cc1ccccc1)C(=O)N[C@@H](CCC(=O)O)C(N)=O)C(C)C [JBS3306] (Ac-HWYVSAGWYDYNEDKYYEFE-NH2)

Row | Compound | EC50 [1] | IC50 [2] | Stability in human plasma; 6 hours [%] [3] | Stability in mouse plasma; 4 hours [%] [4] | koff ([5]; read-out: koff) | kon ([5]; read-out: kon) | Kd [5] | koff [5] | kon [5]
6 | JBS3321: tetramer of JBS3319 monomers together with a four arm 10 kD PEG moiety (Ac-EYYVSAGWYDYNTDTYYEFEC-NH2; not fully specified (residue 21); also: tetramer: four chains joined through C-terminal Cys maleimide to a four-arm 10 kD PEG core) | – | – | 99 ± 6% | 94 ± 12% | – | – | – | 3.88e-05 s⁻¹ | 1.58e+06 M⁻¹ s⁻¹
